Data on 30 compounds can be found in ChEMBL document CHEMBL5291721, “A preclinical secondary pharmacology resource illuminates target-adverse drug reaction associations of marketed drugs” (Nat Commun, 2023).

In test [1] the target is Gamma-aminobutyric acid receptor subunit alpha-1 (Rattus norvegicus, UniProt P62813).
In test [2] the target is T1, Muscarinic acetylcholine receptor M1 (Homo sapiens, UniProt P11229).
T1 sequence (P11229 whole entry): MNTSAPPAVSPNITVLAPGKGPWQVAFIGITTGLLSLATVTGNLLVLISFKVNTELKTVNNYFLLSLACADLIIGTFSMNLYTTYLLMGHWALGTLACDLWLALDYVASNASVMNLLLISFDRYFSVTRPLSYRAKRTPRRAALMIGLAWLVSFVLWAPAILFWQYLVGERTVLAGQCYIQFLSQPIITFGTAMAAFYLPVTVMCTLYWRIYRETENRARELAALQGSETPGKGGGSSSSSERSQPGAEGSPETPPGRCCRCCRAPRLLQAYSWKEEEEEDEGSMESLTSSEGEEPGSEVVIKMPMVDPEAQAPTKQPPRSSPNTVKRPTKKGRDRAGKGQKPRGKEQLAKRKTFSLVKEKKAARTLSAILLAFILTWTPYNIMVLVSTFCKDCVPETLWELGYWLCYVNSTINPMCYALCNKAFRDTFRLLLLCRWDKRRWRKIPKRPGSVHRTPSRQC
Format: functional.

Test [3] addresses T2, 5-hydroxytryptamine receptor 1A (Homo sapiens, UniProt P08908).
T2 sequence (P08908 whole entry): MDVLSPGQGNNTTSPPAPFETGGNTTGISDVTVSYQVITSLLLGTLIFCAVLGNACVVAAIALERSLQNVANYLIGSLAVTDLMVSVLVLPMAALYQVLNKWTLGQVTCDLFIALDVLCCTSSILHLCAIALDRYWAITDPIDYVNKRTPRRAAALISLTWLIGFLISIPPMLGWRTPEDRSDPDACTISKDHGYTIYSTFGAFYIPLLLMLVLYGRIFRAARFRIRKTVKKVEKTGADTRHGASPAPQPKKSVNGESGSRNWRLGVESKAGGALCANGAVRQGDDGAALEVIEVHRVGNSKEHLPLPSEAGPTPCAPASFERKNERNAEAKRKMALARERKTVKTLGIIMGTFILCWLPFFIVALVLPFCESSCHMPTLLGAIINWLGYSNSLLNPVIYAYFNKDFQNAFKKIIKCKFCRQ

Test [4] deals with Beta-3 adrenergic receptor (Homo sapiens, UniProt P13945).
Chain of Beta-3 adrenergic receptor (P13945 whole entry): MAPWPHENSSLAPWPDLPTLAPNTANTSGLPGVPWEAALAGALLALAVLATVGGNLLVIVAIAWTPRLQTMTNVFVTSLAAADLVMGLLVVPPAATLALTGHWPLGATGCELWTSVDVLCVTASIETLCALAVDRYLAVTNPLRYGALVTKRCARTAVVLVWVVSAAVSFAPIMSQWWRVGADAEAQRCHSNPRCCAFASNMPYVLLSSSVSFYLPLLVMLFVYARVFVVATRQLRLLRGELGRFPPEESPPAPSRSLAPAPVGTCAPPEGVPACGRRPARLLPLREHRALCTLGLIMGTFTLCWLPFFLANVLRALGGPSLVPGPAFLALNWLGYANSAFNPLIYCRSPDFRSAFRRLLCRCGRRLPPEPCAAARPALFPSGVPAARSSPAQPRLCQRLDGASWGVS
Test [5] concerns the target T3, Alpha-1A adrenergic receptor (Homo sapiens, UniProt P35348).
T3 sequence (P35348 whole entry): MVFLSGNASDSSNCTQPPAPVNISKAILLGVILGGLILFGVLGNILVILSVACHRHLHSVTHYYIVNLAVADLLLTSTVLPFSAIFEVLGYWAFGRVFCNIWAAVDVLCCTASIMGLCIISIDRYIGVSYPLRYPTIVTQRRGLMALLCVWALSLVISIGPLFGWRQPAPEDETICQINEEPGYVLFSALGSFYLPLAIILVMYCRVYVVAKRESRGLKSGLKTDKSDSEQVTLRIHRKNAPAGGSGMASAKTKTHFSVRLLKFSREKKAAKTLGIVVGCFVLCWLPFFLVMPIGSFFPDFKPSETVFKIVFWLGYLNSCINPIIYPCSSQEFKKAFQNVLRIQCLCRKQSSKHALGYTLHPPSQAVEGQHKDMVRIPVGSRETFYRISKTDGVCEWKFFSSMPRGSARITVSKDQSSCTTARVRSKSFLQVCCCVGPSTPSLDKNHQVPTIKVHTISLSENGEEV

In test [6] the target is 5-hydroxytryptamine receptor 2B (Homo sapiens, UniProt P41595).
Chain of 5-hydroxytryptamine receptor 2B (P41595 whole entry): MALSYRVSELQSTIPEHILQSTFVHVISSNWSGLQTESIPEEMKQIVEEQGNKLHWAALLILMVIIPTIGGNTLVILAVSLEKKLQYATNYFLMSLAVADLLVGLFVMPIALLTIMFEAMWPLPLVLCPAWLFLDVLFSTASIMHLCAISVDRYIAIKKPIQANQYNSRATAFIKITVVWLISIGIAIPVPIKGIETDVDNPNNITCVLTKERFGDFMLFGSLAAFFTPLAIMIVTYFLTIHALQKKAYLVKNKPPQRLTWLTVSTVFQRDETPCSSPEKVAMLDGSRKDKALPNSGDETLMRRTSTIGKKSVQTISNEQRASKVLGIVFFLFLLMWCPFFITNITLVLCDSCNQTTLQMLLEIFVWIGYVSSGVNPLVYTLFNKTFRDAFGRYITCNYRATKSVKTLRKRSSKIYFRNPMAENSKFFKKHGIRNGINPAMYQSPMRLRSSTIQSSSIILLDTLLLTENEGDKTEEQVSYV
Test [7] has as its target T4, Muscarinic acetylcholine receptor M2 (Homo sapiens, UniProt P08172).
T4 sequence (P08172 whole entry): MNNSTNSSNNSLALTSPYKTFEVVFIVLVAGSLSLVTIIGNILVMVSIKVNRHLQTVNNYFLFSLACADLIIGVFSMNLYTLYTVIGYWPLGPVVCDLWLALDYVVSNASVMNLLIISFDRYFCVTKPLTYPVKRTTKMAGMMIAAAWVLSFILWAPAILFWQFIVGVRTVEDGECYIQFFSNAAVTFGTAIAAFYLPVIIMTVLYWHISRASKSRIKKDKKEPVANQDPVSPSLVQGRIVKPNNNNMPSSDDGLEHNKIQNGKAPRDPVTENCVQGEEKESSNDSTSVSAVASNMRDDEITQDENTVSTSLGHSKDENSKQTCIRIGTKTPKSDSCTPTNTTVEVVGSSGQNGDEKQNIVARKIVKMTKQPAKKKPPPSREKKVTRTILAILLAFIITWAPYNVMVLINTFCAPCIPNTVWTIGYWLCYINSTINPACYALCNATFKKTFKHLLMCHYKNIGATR

Test [8] addresses T5, B1 bradykinin receptor (Homo sapiens, UniProt P46663).
T5 sequence (P46663 whole entry): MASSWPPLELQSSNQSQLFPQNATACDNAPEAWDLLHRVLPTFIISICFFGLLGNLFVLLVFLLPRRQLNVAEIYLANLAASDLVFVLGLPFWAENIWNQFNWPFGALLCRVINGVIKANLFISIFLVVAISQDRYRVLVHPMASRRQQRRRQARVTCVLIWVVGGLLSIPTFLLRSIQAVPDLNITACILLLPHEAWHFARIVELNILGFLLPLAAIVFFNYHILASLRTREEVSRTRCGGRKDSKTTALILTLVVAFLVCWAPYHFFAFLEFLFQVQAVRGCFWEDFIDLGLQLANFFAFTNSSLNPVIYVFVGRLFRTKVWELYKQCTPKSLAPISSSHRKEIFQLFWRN

The target in test [9] is Neurotensin receptor type 1 (Homo sapiens, UniProt P30989).
Chain of Neurotensin receptor type 1 (P30989 whole entry): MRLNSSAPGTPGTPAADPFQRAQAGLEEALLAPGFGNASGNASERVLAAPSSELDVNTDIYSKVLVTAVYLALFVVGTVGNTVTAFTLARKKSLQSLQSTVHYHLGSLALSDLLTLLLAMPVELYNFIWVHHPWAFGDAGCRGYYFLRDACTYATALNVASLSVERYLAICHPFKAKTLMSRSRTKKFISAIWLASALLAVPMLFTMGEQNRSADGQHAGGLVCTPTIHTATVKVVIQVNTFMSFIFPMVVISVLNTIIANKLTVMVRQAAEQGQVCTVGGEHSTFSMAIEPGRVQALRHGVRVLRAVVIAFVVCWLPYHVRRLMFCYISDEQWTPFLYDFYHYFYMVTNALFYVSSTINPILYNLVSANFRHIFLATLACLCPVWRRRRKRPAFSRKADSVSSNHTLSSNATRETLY

Structures are written as SMILES.
Also: assay procedure not described here.

Chain of Gamma-aminobutyric acid receptor subunit alpha-1 (P62813 whole entry): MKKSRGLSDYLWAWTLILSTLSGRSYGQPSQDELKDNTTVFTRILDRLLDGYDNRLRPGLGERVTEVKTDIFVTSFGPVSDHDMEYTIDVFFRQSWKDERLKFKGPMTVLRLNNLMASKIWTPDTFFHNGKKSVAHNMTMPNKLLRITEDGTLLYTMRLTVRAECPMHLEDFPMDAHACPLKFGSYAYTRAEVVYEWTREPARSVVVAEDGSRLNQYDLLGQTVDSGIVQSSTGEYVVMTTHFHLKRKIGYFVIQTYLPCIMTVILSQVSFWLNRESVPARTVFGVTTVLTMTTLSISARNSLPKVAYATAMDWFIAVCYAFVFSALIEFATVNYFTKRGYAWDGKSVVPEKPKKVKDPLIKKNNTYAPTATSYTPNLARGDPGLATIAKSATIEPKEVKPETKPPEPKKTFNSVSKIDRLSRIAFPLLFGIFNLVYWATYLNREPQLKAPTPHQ

Usually AC50 stands for the concentration giving half of the maximal activity seen. Low values mean greater potency, high ones weaker potency. Regarding `CCCCN1C[C@H](O)[C@@H](O)[C@H](O)[C@H]1CO`, the AC50 in test [1] and in [2] was above 30 µM each time.
Turning to `CCOC(=O)[C@H](CCc1ccccc1)N[C@@H](C)C(=O)N1[C@H](C(=O)O)C[C@@H]2CCC[C@@H]21`, the AC50 in test [3] is above 10 µM; in test [4], above 30 µM; in test [1], above 10 µM; in test [5], above 10 µM; in [6] it was above 10 µM; in [7], above 10 µM. For the same compound, the AC50 in [8] and in test [9] was above 30 µM in each case.
As for `Nc1nc(NC2CC2)c2ncn([C@H]3C=C[C@@H](CO)C3)c2n1` [ABACAVIR], the half-maximal activity concentration (AC50) in test [1] and in [2] was above 30 µM throughout.
For the compound `CC(=O)NCCCS(=O)(=O)O` [ACAMPROSATE], the AC50 in test [1] and in test [2] was above 30 µM in each case.
On to `CCCSc1ccc2nc(NC(=O)OC)[nH]c2c1` [ALBENDAZOLE], for which the AC50 in test [1] was above 10 µM.
`COc1cc2nc(N(C)CCCNC(=O)C3CCCO3)nc(N)c2cc1OC` (centres undefined) [ALFUZOSIN]: the half-maximal activity concentration (AC50) in test [1] and in test [2] was above 30 µM each time.
As to `C=CCc1ccccc1OCC(O)CNC(C)C` (centres undefined) [ALPRENOLOL], the concentration at half-maximal activity (AC50) in test [1] and in test [2] was above 30 µM in each case.
`CNC(=O)c1ccccc1Sc1ccc2c(/C=C/c3ccccn3)n[nH]c2c1` [AXITINIB]: the AC50 in test [2] was above 30 µM.
With `CC[C@H]1OC(=O)[C@H](C)[C@@H](O[C@H]2C[C@@](C)(OC)[C@@H](O)[C@H](C)O2)[C@H](C)[C@@H](O[C@@H]2O[C@H](C)C[C@H](N(C)C)[C@H]2O)[C@](C)(O)C[C@@H](C)CN(C)[C@H](C)[C@@H](O)[C@]1(C)O` [AZITHROMYCIN], the AC50 in [3] is above 10 µM; in test [4] it was above 30 µM; in [1], above 30 µM; in test [5] it was above 10 µM; in test [6], above 10 µM; in [7], above 10 µM. Further, the AC50 in test [8] and in test [9] was above 30 µM each time.
As to `CC1=C(C(=O)O)N2C(=O)[C@@H](NC(=O)[C@H](N)c3ccccc3)[C@H]2SC1` [CEPHALEXIN ANHYDROUS], the AC50 is above 10 µM in [3]; above 30 µM in test [4]; above 10 µM in test [1]; above 10 µM in [5]; above 30 µM in [8]; above 30 µM in test [9].
`CN1C(=O)CCS(=O)(=O)C1c1ccc(Cl)cc1` (centres undefined) [CHLORMEZANONE]: the concentration at half-maximal activity (AC50) in [1] is above 10 µM; in [2], above 30 µM.
Turning to `CN(C)/N=N/c1[nH]cnc1C(N)=O` [DACARBAZINE], the AC50 in [1] is above 10 µM.
For `O=C(Cc1ccc(-c2ccccc2)cc1)Nc1ccccn1` [DIFENPIRAMIDE], the AC50 in [1] and in [2] was above 30 µM in each case.
With `O=C1Nc2ccc(Cl)cc2[C@@](C#CC2CC2)(C(F)(F)F)O1` [EFAVIRENZ], the AC50 is above 10 µM in test [1] and above 30 µM in test [2].
Consider `C[C@]12CCC(=O)C=C1CC[C@@H]1[C@@H]2[C@@H](O)C[C@@]2(C)[C@H]1CC[C@]2(O)C(=O)CO` [HYDROCORTISONE], for which the concentration at half-maximal activity (AC50) was above 10 µM in test [3]; above 30 µM in test [4]; above 10 µM in test [1]; above 10 µM in [6]; above 10 µM in [7]; above 30 µM in [8]. The compound also yielded an AC50 in [9] above 30 µM.
Consider `O=P1(NCCCl)OCCCN1CCCl` (centres undefined) [IFOSFAMIDE], for which, in [1], the AC50 is above 30 µM.
Turning to `CN1C(C(=O)Nc2ccccn2)=C(O)c2sc(Cl)cc2S1(=O)=O` [LORNOXICAM], the AC50 in [3], in [1], in test [6] and in test [2] was above 10 µM each time.
In test [1], `Cc1cccc(Nc2ccccc2C(=O)O)c1C` [MEFENAMIC ACID] came in with an AC50 above 10 µM.
Turning to `Clc1ccc(C(c2ccccc2Cl)C(Cl)Cl)cc1` (centres undefined) [MITOTANE], in test [1], the AC50 is above 10 µM.
For `CC1(C)NC(=O)N(c2ccc([N+](=O)[O-])c(C(F)(F)F)c2)C1=O` [NILUTAMIDE], the AC50 in test [1] and in [2] was above 30 µM each time.
Regarding `Cc1nc([N+](=O)[O-])cn1-c1ccc([N+](=O)[O-])cc1` [NITREFAZOLE], the AC50 in [1] and in test [2] was above 30 µM each time.
With `CC[C@H]1[C@@H](O)[C@@H]2[C@H](CC[C@]3(C)[C@@H]([C@H](C)CCC(=O)O)CC[C@@H]23)[C@@]2(C)CC[C@@H](O)C[C@@H]12` [OBETICHOLIC ACID], the concentration at half-maximal activity (AC50) in test [1] and in test [2] was above 30 µM each time.
For `CCCN1C[C@H](CSC)C[C@@H]2c3cccc4[nH]cc(c34)C[C@H]21` [PERGOLIDE], the AC50 was 20.8 µM in test [4]; above 10 µM in test [1]; 0.0205 µM in [6]; above 10 µM in test [7]; above 30 µM in [8]; above 30 µM in [9].
In [2], `COCCCN1CCC(NC(=O)c2cc(Cl)c(N)c3c2OCC3)CC1` [PRUCALOPRIDE] had an AC50 above 30 µM.
Regarding `COc1ccccc1OCC(O)CN1CCN(CC(=O)Nc2c(C)cccc2C)CC1` (centres undefined) [RANOLAZINE], the half-maximal activity concentration (AC50) in test [1] and in test [2] was above 30 µM each time.
Regarding `CO[C@H]1C[C@@H]2CC[C@@H](C)[C@@](O)(O2)C(=O)C(=O)N2CCCC[C@H]2C(=O)O[C@H]([C@H](C)C[C@@H]2CC[C@@H](O)[C@H](OC)C2)CC(=O)[C@H](C)/C=C(\C)[C@@H](O)[C@@H](OC)C(=O)[C@H](C)C[C@H](C)/C=C/C=C/C=C/1C` [SIROLIMUS], the AC50 in [3] is above 10 µM; in test [4] it was 23.8 µM; in test [1] it was above 10 µM; in [8], above 30 µM; in test [9], above 30 µM.
`O=C(O[C@H]1C[C@H]2CC[C@@H](C1)[N+]21CCCC1)C(O)(c1ccccc1)c1ccccc1` [TROSPIUM]: the AC50 in test [1] is above 30 µM; in test [7], 0.026 µM; in [2], 0.028 µM.
Regarding `Nc1ccn([C@H]2CC[C@@H](CO)O2)c(=O)n1` [ZALCITABINE], the AC50 in test [1] and in [2] was above 10 µM throughout.
Consider `Cc1cn([C@H]2C[C@H](N=[N+]=[N-])[C@@H](CO)O2)c(=O)[nH]c1=O` [ZIDOVUDINE], for which the AC50 in test [3] is above 10 µM; in test [4] it was above 30 µM; in test [1], above 10 µM; in test [5], above 10 µM; in test [7] it was above 10 µM; in [8], above 30 µM. In test [9], this compound gave an AC50 above 30 µM.
In the case of `NS(=O)(=O)Cc1noc2ccccc12` [ZONISAMIDE], the AC50 in test [1] and in [2] was above 10 µM each time.
